{
  "source": "patent US20250011778A1",
  "about": "“APP iRNA Compositions and Methods of Use Thereof for Treating or Preventing Diseases Characterized by Enlarged Endosomes” (ALNYLAM PHARMACEUTICALS, INC., priority 2021, published 2025)",
  "format_in_all_cases": "in vivo",
  "key": {"sAPPα protein": {"system": "sAPPα protein", "assay": "CVN mouse study, sAPPα protein after ICV dose", "conditions": "single 60 μg ICV, CSF", "source_text": "(§1) Male and female CVN mice were bred at CRL Germany and genotyped, housed, dosed and analyzed (IHC, ^1H-MRS and open field test) at CRL Finland, as previously reported, under regular temperature, humidity and light/dark cycle conditions (Wilcock et al. J. Neurosci. 28: 1537-1545; Colton et al. J. Neuropathol. Exp. Neurol. 73: 752-769; Kohonen et al. Nat. Commun. 8: 15932). Homozygous Tg-hAPP^SwDI/mNos2^−/− (CVN) mice were produced by crossing mice expressing the vasculotropic Swedish K670N/M671L, Dutch E693Q and Iowa D694N human APP mutations under control of the Thy-1 promoter (Davis et al. J. Biol. Chem. 279: 20296-20306) with mNos2^−/− (B6 129PNos2 tau1Lau/J) mice (Laubach et al. Am. J. Physiol. 275: H2211-H2218). The study was divided into two phases. In the first phase, 15 CVN mice were dosed by ICV at 3 months of age, with terminal tissue sampling at 6 months of age and 9 months of age. In the second phase, 40 CVN mice and 20 WT mice were divided into three experimental groups, with terminal tissue sampling at 9 months of age and 12 months of age. […] Mice were placed in the center of the chamber, and their behaviors were recorded for 30 minutes. The following parameters were recorded and analyzed: distance traveled, number of vertical rearings and average velocity. […]"}, "IBA1": {"system": "IBA1", "assay": "CVN mouse study, inflammation (IBA1 IHC and Iba1 qPCR)", "source_text": "as §1"}, "APP mRNA": {"system": "APP mRNA", "assay": "CVN mouse study, APP mRNA knockdown after ICV dose", "source_text": "Male and female CVN mice were bred at CRL Germany and genotyped, housed, dosed and analyzed (IHC, ^1H-MRS and open field test) at CRL Finland, as previously reported, under regular temperature, humidity and light/dark cycle conditions (Wilcock et al. J. Neurosci. 28: 1537-1545; Colton et al. J. Neuropathol. Exp. Neurol. 73: 752-769; Kohonen et al. Nat. Commun. 8: 15932). Homozygous Tg-hAPP^SwDI/mNos2^−/− (CVN) mice were produced by crossing mice expressing the vasculotropic Swedish K670N/M671L, Dutch E693Q and Iowa D694N human APP mutations under control of the Thy-1 promoter (Davis et al. J. Biol. Chem. 279: 20296-20306) with mNos2^−/− (B6 129PNos2 tau1Lau/J) mice (Laubach et al. Am. J. Physiol. 275: H2211-H2218). The study was divided into two phases. In the first phase, 15 CVN mice were dosed by ICV at 3 months of age, with terminal tissue sampling at 6 months of age and 9 months of age. In the second phase, 40 CVN mice and 20 WT mice were divided into three experimental groups, with terminal tissue sampling at 9 months of age and 12 months of age. Metabolic analyses using ^1H-MRS were at 12 months of age, respectively, as previously described (Colton et al. J. Neuropathol. Exp. Neurol. 73: 752-769). Open field test measurements were performed at approximately 9 months of age. Activity chambers (Med Associates, 27×27×20.3 cm) were equipped with infrared beams. Mice were placed in the center of the chamber, and their behaviors were recorded for 30 minutes. The following parameters were recorded and analyzed: distance traveled, number of vertical rearings and average velocity. IHC was performed as described (Wilcock et al. J. Neurosci. 28: 1537-1545; Kan et al. J Neurosci. 35: 5969-5982) using anti-amyloid-beta antibody WO2 (Sigma-Aldrich, MABN10, lot 3557956, 1:500) and anti-IBA1 antibody (Wako Pure Chemicals, 01-1941, lot LEP3218, 1:200). All data are presented as mean±standard deviation or standard error of the mean, and differences were statistically significant at the P<0.05 level. Statistical analyses were performed using the PRISM statistical program (GraphPad Software).\nICV administration was performed using stereotaxically guided Hamilton syringe and infusion system (Harvard Apparatus). A single 5-μl unilateral injection was performed in the right lateral ventricle at the following coordinates: AP=−0.5 mm (posterior from bregma), ML=+1.0 mm and DV=−1.75 mm, using standard aseptic surgical procedures. After midline skin incision on the scalp, a burr hole was generated at selected coordinates using stereotaxic coordinates and a dental drill. Thereafter, a small puncture in the dura was made at the epicenter of the burr hole, and the needle was lowered to specified depth to reach the lateral ventricle. A Hamilton syringe with a 28-gauge blunt needle was filled with a volume slightly greater than 5 μl. Administration volume of the test articles was at 5 μl and infusion rate at 1 μl min^−1 (over 5 minutes). After the infusion, the needle was left in place for a stabilization period of 5 minutes before withdrawal from the ventricle. Withdrawal was performed slowly and paused for 30 seconds when the needle tip was at the cortical area. […]"}, "CVN mice": {"system": "CVN mice", "assay": "CVN mouse study, open field test", "conditions": "vs WT", "source_text": "as §1"}, "[1]": {"system": "glutamate (Glu) and N-acetylaspartate (NAA)", "assay": "CVN mouse study, metabolites by 1H-MRS", "conditions": "1H-MRS at 12 months of age (6 months post-dose)", "source_text": "as §1"}, "AB40 deposits": {"system": "AB40 deposits", "assay": "CVN mouse study, Aβ40 (AB40) deposits by IHC", "conditions": "6 months after dose, dosed pre-symptomatically, not significant (n=2-4)", "source_text": "as §1"}},
  "note": "Entries after “also recorded” stand apart in the source; their conditions may differ.",
  "data": [
    {"substance": "AD-454972: APP-targeting C16-siRNA; sense usasuga(Ahd)GfuUfCfAfucaucaaasasa, antisense VPusUfsuuug(Agn)ugaugaAfcUfucauasusc; SEQ 1435/1440 (sense UAUGAAGUUCAUCAUCAAAAA; antisense UUUUUGAUGAUGAACUUCAUAUC; C16 conjugate, chemical modifications, chemistry not fully specified)", "values": [
      {"measurement": "reduction of sAPPα protein", "setting": "sAPPα protein", "result": 50, "unit": "%"},
      {"measurement": "reduction of Iba1 mRNA expression", "setting": "IBA1; after 6 months", "result": "20-30%"},
      {"measurement": "IBA1 IHC intensity", "setting": "IBA1; cortex and hippocampus, rate of increase over time", "result": "significantly slower rate of increase"},
      {"measurement": "reduction of APP mRNA in the cortex", "setting": "APP mRNA; after 3 months", "result": "approximately 25%"},
      {"measurement": "reduction of APP mRNA", "setting": "APP mRNA; single 60 μg ICV, ventral cortex (VC)", "result": 50, "unit": "%"},
      {"measurement": "reduction of APP mRNA", "setting": "APP mRNA; single 120 μg ICV, 30 days post-dose, VC", "result": "~75", "unit": "%"},
      {"measurement": "reduction of APP mRNA", "setting": "APP mRNA; single 120 μg ICV, 60 days post-dose, VC", "result": "> 50", "unit": "%"},
      {"measurement": "APP mRNA level", "setting": "APP mRNA; single 120 μg ICV, 90 days, VC", "result": "normalizing"},
      {"measurement": "rearing frequency", "setting": "CVN mice", "result": "normalization; also recorded: normalized"},
      {"measurement": "total distance traveled", "setting": "CVN mice", "result": "normalization; also recorded: normalized"},
      {"measurement": "N-acetylaspartate (NAA) levels", "setting": "[1]", "result": "little effect"},
      {"measurement": "glutamate (Glu) levels", "setting": "[1]; vs WT", "result": "normalization; also recorded: normalized"},
      {"measurement": "reduction of AB40 deposits", "setting": "AB40 deposits", "result": "approximately 50%"}
    ]}
  ]
}
